Laboratory results reported in patent US8211662B2, “Nitroreductase enzymatic substrates” (Biomerieux, priority 2007, dated 2012).

Tests used:
[1] = tested on: Bacillus subtilis NCTC 9372; assay: Nitroreductase detection on Columbia agar, colonies read under UV; type: cell-based; parameters: key: − = no fluorescence detected; +/− = weak fluorescence; + = medium fluorescence; ++ = strong fluorescence; details: Table 3; 100 mg/l in Columbia agar, 24 h 37° C., UV 360-365 nm
Procedure: (§1) A mass of 40 mg of each substrate was dissolved in 4 ml of dimethylformamide (DMF). This solution was entirely taken up in 400 ml of Columbia agar autoclaved beforehand and kept molten at 50° C. The final concentration for each substrate was 100 mg/l.
(§2) Each of the media was distributed into Petri dishes 90 mm in diameter, in a proportion of 20 ml per dish.
(§3) 18 microorganism strains derived from collections and belonging to various species of bacteria and of yeasts were inoculated onto these media by semi-quantitative isolation of 10 μl of a suspension at 0.5 McFarland diluted to 1/20. The media were incubated for 24 hours at 37° C., then the colonies formed were examined visually under UV illumination at 360-365 nm.

[2] = tested on: Burkholderia cepacia 1222; assay: as above; type: cell-based; parameters: key: − = no fluorescence detected; +/− = weak fluorescence; + = medium fluorescence; ++ = strong fluorescence; details: Table 3; 100 mg/l in Columbia agar, 24 h 37° C., UV 360-365 nm
Procedure: as §1, §2, §3

[3] = tested on: Candida albicans ATCC 90028; assay: as above; type: cell-based; parameters: key: − = no fluorescence detected; +/− = weak fluorescence; + = medium fluorescence; ++ = strong fluorescence; details: Table 3; 100 mg/l in Columbia agar, 24 h 37° C., UV 360-365 nm
Procedure: as §1, §2, §3

[4] = tested on: Citrobacter freundii 46262 (wild); assay: as above; type: cell-based; parameters: key: − = no fluorescence detected; +/− = weak fluorescence; + = medium fluorescence; ++ = strong fluorescence; details: Table 3; 100 mg/l in Columbia agar, 24 h 37° C., UV 360-365 nm
Procedure: as §1, §2, §3

[5] = tested on: Enterobacter cloacae NCTC 11936; assay: as above; type: cell-based; parameters: key: − = no fluorescence detected; +/− = weak fluorescence; + = medium fluorescence; ++ = strong fluorescence; details: Table 3; 100 mg/l in Columbia agar, 24 h 37° C., UV 360-365 nm
Procedure: as §1, §2, §3

[6] = tested on: Enterococcus faecalis NCTC 775; assay: as above; type: cell-based; parameters: key: − = no fluorescence detected; +/− = weak fluorescence; + = medium fluorescence; ++ = strong fluorescence; details: Table 3; 100 mg/l in Columbia agar, 24 h 37° C., UV 360-365 nm
Procedure: as §1, §2, §3

[7] = tested on: Enterococcus faecium NCTC 7171; assay: as above; type: cell-based; parameters: key: − = no fluorescence detected; +/− = weak fluorescence; + = medium fluorescence; ++ = strong fluorescence; details: Table 3; 100 mg/l in Columbia agar, 24 h 37° C., UV 360-365 nm
Procedure: as §1, §2, §3

[8] = tested on: Escherichia coli NCTC 10418; assay: as above; type: cell-based; parameters: key: − = no fluorescence detected; +/− = weak fluorescence; + = medium fluorescence; ++ = strong fluorescence; details: Table 3; 100 mg/l in Columbia agar, 24 h 37° C., UV 360-365 nm
Procedure: as §1, §2, §3

[9] = tested on: Listeria monocytogenes NCTC 11994; assay: as above; type: cell-based; parameters: key: − = no fluorescence detected; +/− = weak fluorescence; + = medium fluorescence; ++ = strong fluorescence; details: Table 3; 100 mg/l in Columbia agar, 24 h 37° C., UV 360-365 nm
Procedure: as §1, §2, §3

[10] = tested on: Providencia rettgeri NCTC 7475; assay: as above; type: cell-based; parameters: key: − = no fluorescence detected; +/− = weak fluorescence; + = medium fluorescence; ++ = strong fluorescence; details: Table 3; 100 mg/l in Columbia agar, 24 h 37° C., UV 360-365 nm
Procedure: as §1, §2, §3

[11] = tested on: Pseudomonas aeruginosa NCTC 10662; assay: as above; type: cell-based; parameters: key: − = no fluorescence detected; +/− = weak fluorescence; + = medium fluorescence; ++ = strong fluorescence; details: Table 3; 100 mg/l in Columbia agar, 24 h 37° C., UV 360-365 nm
Procedure: as §1, §2, §3

[12] = tested on: Serratia marcescens NCTC 10211; assay: as above; type: cell-based; parameters: key: − = no fluorescence detected; +/− = weak fluorescence; + = medium fluorescence; ++ = strong fluorescence; details: Table 3; 100 mg/l in Columbia agar, 24 h 37° C., UV 360-365 nm
Procedure: as §1, §2, §3

[13] = tested on: Staphylococcus aureus NCTC 6571; assay: as above; type: cell-based; parameters: key: − = no fluorescence detected; +/− = weak fluorescence; + = medium fluorescence; ++ = strong fluorescence; details: Table 3; 100 mg/l in Columbia agar, 24 h 37° C., UV 360-365 nm
Procedure: as §1, §2, §3

[14] = tested on: Staphylococcus epidermidis NCTC 11047; assay: as above; type: cell-based; parameters: key: − = no fluorescence detected; +/− = weak fluorescence; + = medium fluorescence; ++ = strong fluorescence; details: Table 3; 100 mg/l in Columbia agar, 24 h 37° C., UV 360-365 nm
Procedure: as §1, §2, §3

[15] = tested on: Streptococcus pyogenes NCTC 8306; assay: as above; type: cell-based; parameters: key: − = no fluorescence detected; +/− = weak fluorescence; + = medium fluorescence; ++ = strong fluorescence; details: Table 3; 100 mg/l in Columbia agar, 24 h 37° C., UV 360-365 nm
Procedure: as §1, §2, §3

[16] = tested on: Yersinia enterocolitica NCTC 11176; assay: as above; type: cell-based; parameters: key: − = no fluorescence detected; +/− = weak fluorescence; + = medium fluorescence; ++ = strong fluorescence; details: Table 3; 100 mg/l in Columbia agar, 24 h 37° C., UV 360-365 nm
Procedure: as §1, §2, §3

[17] = tested on: Salmonella typhimurium NCTC 74; assay: as above; type: cell-based; parameters: key to Intensity of fluorescence, Salmonella typhimurium NCTC 74 / F: fluorescence (intensity), Salmonella typhimurium NCTC 74 / Intensity of the fluorescence, Salmonella typhimurium NCTC 74: − = no fluorescence detected; +/− = weak fluorescence; + = medium fluorescence; ++ = strong fluorescence; details: Table 3; 100 mg/l in Columbia agar, 24 h 37° C., UV 360-365 nm
Procedure: as §1, §2, §3

[18] = tested on: Morganella morganii 462403 (wild); assay: as above; type: cell-based; parameters: key to Intensity of fluorescence, Morganella morganii 462403 / F: fluorescence (intensity), Morganella morganii 462403 (wild) / Intensity of the fluorescence, Morganella morganii 462403 (wild): − = no fluorescence detected; +/− = weak fluorescence; + = medium fluorescence; ++ = strong fluorescence; details: Table 3; 100 mg/l in Columbia agar, 24 h 37° C., UV 360-365 nm
Procedure: as §1, §2, §3

MRSA NCTC 11939 = assay: as above; type: cell-based, Staphylococcus aureus; parameters: key: − = no fluorescence detected; +/− = weak fluorescence; + = medium fluorescence; ++ = strong fluorescence; details: Table 3; 100 mg/l in Columbia agar, 24 h 37° C., UV 360-365 nm
Procedure: as §1, §2, §3

[19] = tested on: Candida glabrata NCPF 3943; assay: as above; type: cell-based; parameters: key to Intensity of fluorescence, Candida glabrata NCPF3943 / F: fluorescence (intensity), Candida glabrata NCPF 3943 / Intensity of the fluorescence, Candida glabrata NCPF 3943: − = no fluorescence detected; +/− = weak fluorescence; + = medium fluorescence; ++ = strong fluorescence; details: Table 3; 100 mg/l in Columbia agar, 24 h 37° C., UV 360-365 nm
Procedure: as §1, §2, §3

O=[N+]([O-])c1ccc(Cl)cc1-c1nc2ccccc2o1 [Substrate 4, 2-(2′-Nitro-5′-chlorophenyl)benzoxazole] gave a melting point of 130 to 132 °C.

For O=[N+]([O-])c1cc2c(cc1-c1nc3ccccc3o1)OCO2 [Substrate 5], the “F: fluorescence (intensity), Bacillus subtilis NCTC 9372” value [1] was “−”, the “F: fluorescence (intensity), Burkholderia cepacia 1222” value [2] was “+” and the “F: fluorescence (intensity), Candida albicans ATCC 90028” value [3] was “−”. The “F: fluorescence (intensity), Citrobacter freundii 46262 (wild)” value [4] was “++”, the “F: fluorescence (intensity), Enterobacter cloacae NCTC 11936” value [5] was “++” and the “F: fluorescence (intensity), Enterococcus faecails NCTC 775” value [6] was “−”. The “F: fluorescence (intensity), Enterococcus faecium NCTC 7171” value [7] was “−”, the “F: fluorescence (intensity), Escherichia coli NCTC 10418” value [8] was “++” and the “F: fluorescence (intensity), Listeria monocyto genes NCTC 11994” value [9] was “+”. For the same molecule, the “F: fluorescence (intensity), Providencia rettgeri NCTC 7475” value [10] was “+”, the “F: fluorescence (intensity), Pseudomonas aeruginosa NCTC 10662” value [11] was “+” and the “F: fluorescence (intensity), Serratia marcescens NCTC 10211” value [12] was “++”. The “F: fluorescence (intensity), Staphylococcus aureus NCTC 6571” value [13] was “++”, the “F: fluorescence (intensity), Staphylococcus epidermidis NCTC 11047” value [14] was “−” and the “F: fluorescence (intensity), Streptococcus pyogenes NCTC 8306” value [15] was “−”. The “F: fluorescence (intensity), Yersinia enterocolitica NCTC 11176” value [16] was “−”, the “F: fluorescence (intensity), Salmonella typhimurium NCTC 74” value [17] was “++” and the “F: fluorescence (intensity), Morganella morganii 462403 (wild)” value [18] was “++”. The “F: fluorescence (intensity), MRSA NCTC 11939” value (MRSA NCTC 11939) was “++” and the “F: fluorescence (intensity), Candida glabrata NCPF 3943” value [19] was “−”.
